Data from US9260382B2, “Methods of reducing virulence in bacteria” (priority 2010, dated 2016).

What was measured:
[1] = tested on: hrpA promoter (T3SS); experiment: GFP reporter plasmid phrpA, flow cytometry (FACS) of hrpA promoter activity; type: cell-based, Dickeya dadantii 3937; settings: for mean fluorescence intensity of GFP, hrpA expression: D. dadantii 3937 (phrpA), MM + 100 μM compound
Experimental: FACS analysis of promoter activity of dspE, hrpA, hrpL, hrpN, and hrpS was carried out as described (Peng et al., 2006). Briefly, the wild-type Ech3937 and the mutant strains carrying the promoter reporter plasmid were grown on LB broth at 28° C. overnight and transferred to appropriate media. For FACS analysis, samples were collected by centrifugation, washed with 1× phosphate buffer saline (PBS) at 13,000 rpm for 1 min, and re-suspended in 1×PBS to ca 10^6 CFU/ml prior to being run in a FACS Calibur flow cytometer (BD Biosciences, CA). Three replicates were performed for each treatment.
To identify potential compounds that repress activation of T3SS, analogs and isomers of TCA and intermediates of salicylic acid and phenypropanoid biosynthesis pathways in plants were further screened for their effect on Ech3937 hrpA expression by flow cytometry (Table 9). A green fluorescent protein (GFP) reporter plasmid phrpA (pProbe-AT derivative with PCR fragment containing hrpA promoter region) was constructed, resulting in a transcriptional fusion of hrpA promoter with GFP gene. Bacterial cells containing phrpA plasmid were grown in MM supplemented with 0.1 mM of each compound. GFP intensity, which is a measurement of hrpA promoter activity, was measured by flow cytometry.
hrpA encodes the T3SS pilus required for protein translocation into plant cells. To test for an inhibitory effect on T3SS hrpA expression, the reporter plasmid phrpA was used to measure the effects of these compounds on hrpA expression. The reporter plasmid phrpA encodes a transcriptional fusion of the hrpA promoter controlling expression of green fluorescent protein (gfp). 50 μL of bacterial suspension of D. dadantii 3937 carrying the hrpA reporter (optical density at 600 nm OD600=1.0) was used as the initial inoculum and added to 5 mL of MM or MM supplemented with 100 μM of one of the compounds. The expression level of hrpA of these bacterial cells was measured by measuring GFP intensity of gated populations of the bacterial cells by flow cytometry and analyzed with Cell Quest software (BD Biosciences, San Jose, Calif.). The fluorescence intensities were an average GFP fluorescence intensity of total bacterial cells. Compounds were assayed two different times (12 and 24 h of bacterial growth) with T3SS minimal media (MM) as the control treatment for each set of experiment. Values presented in Table 14 are mean fluorescence intensity of GFP, representative of two experiments, presented as the average of three replicates with standard deviation (SD).

[2] = tested on: hrpA promoter (T3SS); experiment: hrpA promoter-probe phrpA in Erwinia amylovora 273, flow cytometry; type: cell-based; settings: Ea273 (phrpA), HIM + 100 μM compound
Experimental: Wild-type Erwinia amylovora 273 was used in this study. The promoter-probe plasmid phrpA was constructed as follows. The hrpA promoter region of Erwinia amylovora 273 was amplified and cloned into pPROBE-NT to produce PhrpA. Plasmid PhrpA was electroporated into Erwinia amylovora 273. Expression of hrpA was analyzed using a FACS Calibur flow cytometer (BD Biosciences, CA). Wild-type Erwinia amylovora 273 containing phrpA was cultured in a hrp-inducing medium (HIM) containing dimethyl sulfoxide (DMSO; solvent of chemical compounds), or HIM supplemented with 100 μM of each compound, and promoter activity was assessed at 6 h and 9 h by measuring GFP intensity using flow cytometry (Table 19).

Row | Compound | mean fluorescence intensity of GFP, hrpA expression ([1]; 12 h) | mean fluorescence intensity of GFP, hrpA expression ([1]; 24 h) | Avg MFI ± SD, hrpA expression ([2]; 6 h) | Avg MFI ± SD, hrpA expression ([2]; 9 h) | inhibitory activity on T3SS gene (hrpA) expression, in words ([1]; D. dadantii 3937, reporter plasmid phrpA, 100 μM)
1 | COc1ccc(/C=C/CN2C(=O)c3ccccc3C2=O)cc1 [Compound 118, N-(4-Methoxycinnamyl)phthalimide] | 59.0 ± 0.4 | 83.8 ± 1.7 | 361.3 ± 28.6 | 520.4 ± 16.2 | –
2 | O=C(/C=C/c1ccccc1Cl)NO [Compound 150, trans-2-Chlorocinnamohydroxamic acid] | – | – | 25.9 ± 3.2 | 30.5 ± 3.3 | –
3 | O=C(/C=C/c1ccccc1O)NO [Compound 129, trans-2-Hydroxycinnamohydroxamic acid] | – | – | 187.9 ± 1.2 | 181.0 ± 0.7 | –
4 | O=C(O)/C=C/c1ccc(-c2ccccc2)cc1 [Compound 108, trans-4-Phenylcinnamic acid] | 31.6 ± 2.5 | 109.0 ± 19.8 | – | – | inactive
5 | O=C(O)/C=C/c1cccc(O)c1 [Compound 005, meta-coumaric acid] | – | – | 1212 ± 47.6 | 1439.1 ± 97.9 | –
6 | O=C(O)/C=C/c1cccc(Cl)c1 [Compound 022, trans-3-Chlorocinnamic acid] | – | – | 332.9 ± 16.9 | 238.3 ± 8.7 | –
7 | O=C(O)COc1ccccc1 [Compound 009, Phenoxyacetic acid] | – | – | 342.7 ± 24.8 | 269.9 ± 15.2 | –
8 | COC(=O)/C=C/c1ccccc1 [Compound 030, Methyl trans-cinnamate] | – | – | 674.8 ± 252.1 | 668.5 ± 31.2 | –
9 | O=C(COc1ccccc1)NO [Compound 143, 2-Phenoxyacetohydroxamic acid] | – | – | 228.7 ± 4.6 | 178.5 ± 27.1 | –
10 | O=C(O)/C=C/c1ccccc1Cl [Compound 021, trans-2-Chlorocinnamic acid] | – | – | 225.7 ± 35.8 | 192.7 ± 8.6 | –
11 | O=C(/C=C/c1ccccc1[N+](=O)[O-])NO [Compound 157, trans-2-Nitrocinnamohydroxamic acid] | – | – | 104.6 ± 7.3 | 96.2 ± 3.3 | –
12 | Benzoic acid [Compound 034] | – | – | 48.1 ± 5.4 | 32.6 ± 1.9 | –
13 | O=C(/C=C/c1cccc([N+](=O)[O-])c1)NO [Compound 156, trans-3-Nitrocinnamohydroxamic acid] | – | – | 67.8 ± 17.9 | 99.5 ± 4.9 | –
14 | O=C(O)/C=C/c1ccc(C(=O)Nc2ccccc2)cc1 [Compound 166, trans-4-(Carbo-phenylamide)cinnamic acid] | – | – | 105.0 ± 53.0 | 221.2 ± 22.2 | –
15 | O=C(O)c1ccc(O)cc1 [Compound 144, 4-Hydroxybenzoic acid] | – | – | 434.4 ± 22.1 | 424.7 ± 24.8 | –
16 | O=C(O)/C=C/c1c[nH]c2ccccc12 [Compound 012, trans-3-Indoleacrylic acid] | – | – | 33.7 ± 8.9 | 47.9 ± 6.9 | –
17 | Cc1ccccc1/C=C/C(=O)O [Compound 018, trans-2-Methylcinnamic acid] | – | – | 303.8 ± 8.7 | 262.5 ± 9.3 | –

Row | Compound | mean fluorescence intensity of GFP, hrpA expression ([1]; 12 h) | mean fluorescence intensity of GFP, hrpA expression ([1]; 24 h) | Avg MFI ± SD, hrpA expression ([2]; 6 h) | Avg MFI ± SD, hrpA expression ([2]; 9 h) | inhibitory activity on T3SS gene (hrpA) expression, in words ([1]; D. dadantii 3937, reporter plasmid phrpA, 100 μM)
18 | COc1cccc(/C=C/C(=O)O)c1 [Compound 016, trans-3-Methoxycinnamic acid] | – | – | 265.3 ± 24.4 | 198.5 ± 20.0 | –
19 | O=Cc1ccc(/C=C/C(=O)NO)cc1 [Compound 146, trans-4-Formylcinnamohydroxamic acid] | – | – | 414.3 ± 31.6 | 435.2 ± 36.2 | –
20 | O=C(O)/C=C/c1ccc([N+](=O)[O-])cc1 [Compound 028, trans-4-Nitrocinnamic acid] | – | – | 14.4 ± 16.9 | 4.0 ± 0.3 | –
21 | O=C(/C=C/c1ccccc1F)NO [Compound 154, trans-2-Fluorocinnamohydroxamic acid] | – | – | 111.4 ± 15.1 | 77.8 ± 1.3 | –
22 | Cc1ccc(/C=C/C(=O)NO)cc1 [Compound 142, trans-4-Methylcinnamohydroxamic acid] | – | – | 126.2 ± 5.6 | 106.0 ± 13.6 | –
23 | O=C(NO)[C@@H]1C[C@H]1c1ccccc1 (relative stereo) [Compound 162, trans-2-Phenylcyclopropane-1-carbohydroxamic acid] | – | – | 711.1 ± 2.8 | 701.9 ± 2.8 | –
24 | O=C(CCc1ccccc1)NO [Compound 139, 3-Phenylpropionohydroxamic acid] | – | – | 306.3 ± 11.9 | 286.3 ± 10.0 | –
25 | O=C(/C=C/c1ccc(Cl)cc1)NO [Compound 148, trans-4-Chlorocinnamohydroxamic acid] | – | – | 22.5 ± 3.7 | 21.8 ± 25.2 | –
26 | O=C(O)/C=C/c1cccs1 [Compound 011, trans-3-(2-Thienyl)acrylic acid] | – | – | 230.1 ± 5.8 | 167.3 ± 8.2 | –
27 | O=C(O)[C@@H]1C[C@H]1c1ccccc1 (relative stereo) [Compound 010, trans-2-Phenylcyclopropane-1-carboxylic acid] | – | – | 336.7 ± 28.1 | 293.0 ± 4.7 | –
28 | O=C(O)/C=C/c1c[nH]cn1 [Compound 014, trans-3-(4-Imidazolyl)acrylic acid] | – | – | 874.6 ± 23.1 | 839.2 ± 17.6 | –
29 | O=Cc1ccc(/C=C/C(=O)O)cc1 [Compound 029, trans-4-Formlycinnamic acid] | – | – | 285.1 ± 40.8 | 218.3 ± 9.9 | –
30 | O=C(O)c1cccc(O)c1 [Compound 145, 3-Hydroxybenzoic acid] | – | – | 559.4 ± 23.6 | 529.9 ± 32.0 | –
31 | O=C(Cc1ccccc1)c1ccc(C2CC2C(=O)O)cc1 (stereo not drawn) [Compound 165, trans-2-[(4′-Benzylcarbonyl]phenylcyclopropane-1-carboxylic acid] | – | – | 292.8 ± 17.1 | 229.4 ± 15.0 | –
32 | O=C(O)CCc1ccc(O)cc1 [Compound 007, 3-(4-Hydroxyphenyl)propionic acid] | – | – | 1093.1 ± 62.8 | 1211.0 ± 58.7 | –
33 | COc1ccccc1/C=C/C(=O)O [Compound 015, trans-2-Methoxycinnamic acid] | – | – | 342.6 ± 7.0 | 255.1 ± 1.7 | –
